Here are results for nine compounds from US8778971B2, “Medicinal treatment of dermal diseases in companion animals” (Bridge Pharma, Inc., priority 2012, dated 2014).

In data set [1] the test system is mice. The experiment in a line: Sedative effects in mice, physostigmine lethality test. Conditions: mice. As for the experimental part: In short, physostigmine (1.0 mg/kg to 2.0 mg/kg, s.c.) generally results in 100% lethality when given to groups of mice (10 mice/group) transferred into a small volume of space. Mice administered a sedating drug prior to the physostigmine injection are protected from the stress and survive. In the present study, test compounds were given orally 60 minutes prior to physostigmine injection. The number of surviving (sedated) mice was counted 30 minutes after injection of the physostigmine dose.

For data set [2], the system named is histamine-induced wheal response. The experiment in a line: Antihistaminic activity in vivo, intradermal histamine wheal. Conditions: rat, oral 10 mg/kg; versus vehicle baseline. The arrangement: species or system rats. As for the experimental part:
Male rats (150-200 g) were fasted overnight and twelve hours after dorsal depilation, the animals were orally pretreated with the test compound(s). Four dorsal test areas were marked with permanent ink, carefully avoiding the area closest to the spine. […] Two intradermal injections of the vehicle for the histamine solution were also performed. […] Twenty minutes were allowed for the wheal response to fully develop, whereupon the animals were euthanized and the dorsal skin with the intradermal wheals were deflected. The blue spotted areas were measured in square millimeters and the duplicate wheal areas were averaged. […] The inhibition was calculated in percent difference from said baseline values.

The subject of data set [3] is human leukocytes (buffy coat). Briefly: Inhibition of A23187-stimulated histamine release from leukocytes. The format is cell-based. Conditions: Homo sapiens, Leukocyte, 20 min; A23187 5 μM, 20 min/37° C.; read-out: Inhibition of inflammatory mediator (histamine) release; IC50. The procedure:
In these studies, histamine was the marker compound for inflammatory mediators that are released from mast cells and other pro-inflammatory cells in patients with atopic inflammatory diseases. The inhibition of stimulated histamine release from human leukocytes (buffy coat) by test articles was studied. Leukocytes were obtained from healthy volunteers and histamine release was induced by incubation (20 min/37° C.) with the calcium ionophore A23187 (5 μM) in the presence or absence of a test article. Histamine was analyzed by enzyme-immune assays, using commercially available kits and a microplate reader (MRX, Dynatech). The test articles were evaluated, in duplicate, at five concentrations.

In data set [4] the test system is croton oil-treated ears. The experiment in a line: Croton oil ear inflammation, systemic (ip) administration. The data set is classed as in vivo. The note with it: mice, 10 mg/kg ip. As for the experimental part:
In order to investigate the effects of systemic administration of the test compounds in dermal inflammation, a croton oil model was used as is known in the art. This test consists of topical application of 20 μl of 1.0% croton oil to each ear of male mice, weighing 28-32 g. […] Application of the croton oil results in an inflammatory response. The weight of croton oil-treated ears was determined and the percent increase in ear weight is calculated. Test articles were dosed systemically (ip). […] All results represent mean ear weights (±S.E.M.) from 10 ears.

Data set [5] deals with dogs. Briefly: Sedative effects in dogs, cross-over oral dosing. The note with it: for Frequency of sedation: 20 mg/kg/day oral. The format is in vivo. The procedure:
Sedation studies in dogs were performed according to a cross-over protocol, where the dogs were administered once daily the test articles orally at a dose of 20 mg/kg bodyweight that in a previous toxicology study was marginally toxic in dogs with equal plasma concentrations of R-norketotifen and S-norketotifen.
The test articles were administered in gelatin capsules and vehicle-capsules were empty. All dogs were healthy beagles (four males and two females), age 24-36 months, weighing 7.8-10.6 kg. The dogs were dosed at 9-10 AM and had been fasted overnight before dosing. There was a washout period of at least three days in all dogs between the tests. All assessments of sedation/sleepiness were made by a qualified (D.V.M.) scientist with extensive experience (>15 years) in studies with conscious laboratory dogs. The test articles were in the form of hydrogen fumarate salts.
It had previously been observed that dogs rarely express sedation in response to oral administration of benzocycloheptathiophene compounds on the first day of dosing and the dogs were therefore administered the test articles for three consecutive days.

Data set [6] concerns rats. The experiment in a line: Acute toxicity, Up-and-Down Procedure. Conditions: RAT, hydrogen fumarate salts. The data set is classed as in vivo. As for the experimental part:
Acute toxicological studies were performed in rats (Sprague-Dawley; M and F; 200-250 grams). The animal-sparing Up-and-Down Procedure (FDA, OECD) was used. Both oral and intravenous toxicity tests were performed.
Both compounds were administered as hydrogen fumarate salts.

Regarding `Clc1ccc2c(c1)CCc1cccnc1C2=C1CCNCC1` [DESLORATADINE], the Sedated animals in data set [1] (oral dose 150 mg/kg) is listed as 0/10.

One may read the inhibition as the relative decrease from the control value, in per cent. Low readings indicate a weak effect, high ones a strong effect. With `CN(C)CCOC(c1ccccc1)c1ccccc1` [DIPHENHYDRAMINE], in data set [2], the inhibition at 10 mg/kg turned out to be 31%. For the same compound, the results for the Sedated animals in data set [1] (oral dose 50 mg/kg) and in data set [1] (oral dose 100 mg/kg) were 5/10 and 8/10, respectively.

Turning to `OCCOCCN1CCN(C(c2ccccc2)c2ccc(Cl)cc2)CC1` (stereo not drawn) [HYDROXYZINE], the Sedated animals in data set [1] (oral dose 100 mg/kg) was 9/10.

As to `CN1CCC(=C2c3ccccc3CC(=O)c3sccc32)CC1` [Ketotifen, 4-(1-methyl-4-piperidyline)-4H-benzo(4,5)-cyclohepta-(1,2-b) thiophene-10-one, reference compound], the IC50 in data set [3] amounted to 91 µM. Further, the “Average Ear weight ±SEM” value is on record as 37 ± 1 mg in data set [4] (90 min) and 42 ± 1 mg in data set [4] (120 min). Besides, the Sedated animals is recorded as 5/10 in data set [1] (oral dose 25 mg/kg), 8/10 in data set [1] (oral dose 50 mg/kg) and 10/10 in data set [1] (oral dose 100 mg/kg). For the same compound, the Frequency of sedation in data set [5] (DAY 1) is 0/6; in data set [5] (DAY 2) it was 5/6; in data set [5] (DAY 3) it was 5/6. The “Sedation in dogs (in words)” value in data set [5] (oral) is given as “causes sedation in dogs”. For the same compound, the results for the “Acute toxicity (estimated LD50)” value in data set [6] (intravenous) and in data set [6] (oral) were 5 to 10 mg/kg and less than 300 mg/kg, respectively.

On to `CCOC(=O)N1CCC(=C2c3ccc(Cl)cc3CCc3cccnc32)CC1` [LORATADINE], for which the Sedated animals in data set [1] (oral dose 150 mg/kg) is 1/10.

For `COc1ccc(CN(CCN(C)C)c2ccccn2)cc1` [PYRILAMINE], in data set [1] (oral dose 100 mg/kg), the Sedated animals was 8/10.

On to `O=C1Cc2ccccc2C(=C2CCNCC2)c2ccsc21` [R-NORKETOTIFEN], for which the Sedated animals is reported as 3/10 in data set [1] (oral dose 100 mg/kg, 100 mg/kg) and 3/10 in data set [1] (oral dose 150 mg/kg, 150 mg/kg).

With `O=C1Cc2ccccc2C(=C2CCNCC2)c2ccsc21` [S-NORKETOTIFEN], the Sedated animals in data set [1] (oral dose 100 mg/kg, 100 mg/kg) was 0/10; in data set [1] (oral dose 150 mg/kg, 150 mg/kg), 0/10.

For `CC(C)(C)c1ccc(C(O)CCCN2CCC(C(O)(c3ccccc3)c3ccccc3)CC2)cc1` (stereo not drawn) [TERFENADINE], the Sedated animals in data set [1] (oral dose 150 mg/kg) is on record as 0/10.
